The text below walks through data of US20040126823A1, “Modulation of prostaglandin synthesis and cancer growth” (priority 2002, published 2004).

This test has as its system Tpl2+/+ macrophages. The test can be described thus: PGE2 levels in LPS treated macrophages (ELISA of culture supernatants). The test is classed as cell-based, mouse. As to conditions: pre-treatment with 20 pM PD98059; Tpl2+/+ macrophages stimulated for 4.5 hrs with LPS. Here is the method:
Tpl2+/+ and Tpl2−/− macrophage cultures were stimulated with […] LPS. Culture supernatants collected at 0, 3, 4.5, 6 or 10 hrs were analysed for PGE2 levels by ELISA. Unstimulated Tpl2+/+ and Tpl2−/− macrophage cultures secreted similar levels of PGE2 respectively. PGE2 levels produced by unstimulated cells were given the arbitrary value of 1. The bar graphs show the fold induction of PGE2 (±SD) compared to control untreated cultures.

As for `COc1cccc(-c2cc(=O)c3ccccc3o2)c1N` [PD98059], the PGE2 secretion entry is recorded as “inhibited PGE2 secretion”.
